Columns and labels:
[1] = Gamitrinib pharmacokinetics in rat plasma, single IV dose; type: in vivo, Sprague-Dawley rats; conditions: after IV Gamitrinib 5 mg/kg
Procedure: Sprague-Dawley rats (n = 3) were administered with a single intravenous (IV) dose of 1 mL Gamitrinib (5 mg/kg) formulated as described above without added microfluidization. Blood samples were collected via lateral tail vein using K2EDTA as an anticoagulant at 0.083, 0.25, 0.5, 1, 2, 4, and 24 h post-dose, chilled on ice, and centrifuged at 5000 rpm for 10 min. Aliquots (0.2 mL) of each plasma sample were stored frozen at −20°C. For analysis, 50 µL aliquots of the study samples were mixed with 50 µL of ACN/H2O (50:50), extracted by protein precipitation using ACN containing the internal standard Gamitrinib-d15 (100 ng/mL), and the aliquots of the supernatant were mixed with deionized water for Gamitrinib determination. Batch samples under analysis included a calibration curve, a matrix blank (blank rat plasma), a reagent blank, a control zero (blank rat plasma spiked with internal standard), and duplicate QC samples at three concentration levels (low, medium, and high) in addition to the study samples. Within each batch, the study samples were bracketed by calibration standards or QC samples. The lowest calibration standard served to evaluate system suitability at the beginning of each batch. […] Overall, the concentration of Gamitrinib was measured in 21 rat plasma samples in 1 analytical batch using LC-MS/MS data acquisition on a Shimadzu Nexera LC system coupled with an AB Sciex Triple Quad 5500 mass spectrometer. Chromatograms were integrated using Analyst 1.6.2 software. A weighted (1/x^2, x = concentration) linear regression was used to generate the calibration curve for Gamitrinib. […] The mean, standard deviation, precision, accuracy, and assay variability were calculated using Microsoft Excel.

[2] = Bidirectional Caco2 cell monolayer permeability; conditions: human
Procedure: Caco-2 and HEK293 cells were obtained from the American Type Culture Collection (ATCC, Manassas, VA) and grown in culture according to the supplier’s specifications. In some experiments, HEK293 cells were stably transfected with hERG cDNA, and polyclonal cultures were maintained in the presence of 250 µg/ml geneticin (G418).
Bidirectional Caco2 cell monolayer permeability. Caco2 cells (2x10^4/well) were seeded onto apical chambers of a 24-multiwell insert plate and incubated at 37°C in 5% CO2. After 21 d, the transepithelial electrical resistance (TEER) in ohms was read for each insert well as a quality control for monolayer integrity (>900 ohms or 300 ohms cm^2). The cell monolayers were incubated with 400 µL transport buffer on the apical (A) and 1.2 mL on the basolateral (B) sides for 30 min. After preincubation, dosing solution was added to the apical (400 µL, A-to-B, donor) or basolateral sides (1.2 mL, B-to-A, donor) or receiving buffer to the apical (400 µL, B-to-A, receiver) or basolateral sides (1.2 mL, A-to-B, receiver) for 90 min at 37°C in 5% CO2. […] Papp’A>B (nm/s) was calculated with Equation 1.
Papp Efflux Ratio (ER) was calculated with Equation 2.
ER=Papp,B>APapp,A>BEquation 2: […]
Propranolol (high permeability marker, non-P-gp substate) and digoxin (P-gp substrate) were used as controls.

[3] = Phase I, cytochrome P450-mediated human liver microsome metabolism
[4] = in vitro; conditions: human
[5] = Caco-2, Papp Efflux Ratio (ER), Papp,B>A / Papp,A>B
[6] = Caco-2, Papp, A>B, Caco2 monolayer, apical to basolateral
[7] = Caco-2, Papp, B>A, Caco2 monolayer, basolateral to apical
[8] = Caco-2, Pexact Efflux Ratio, Caco2 monolayer
[9] = Caco-2, Pexact,A>B, Caco2 monolayer
[10] = Caco-2, Pexact,B>A, Caco2 monolayer

CO[C@H]1/C=C\C=C(/C)C(=O)NC2=CC(=O)C(N)=C(C[C@@H](C)C[C@H](OC)[C@H](O)[C@@H](C)/C=C(\C)[C@@H]1OC(N)=O)C2=O [17-AG, 17-(amino)-17-demethoxygeldanamycin]
17-AG plasma concentration ([1]; animal 1, 5 min): BLOQ
17-AG plasma concentration ([1]; animal 1, 15 min): 0.561 ng/mL
17-AG plasma concentration ([1]; animal 1, 30 min): BLOQ
17-AG plasma concentration ([1]; animal 1, 60 min): BLOQ
17-AG plasma concentration ([1]; animal 1, 120 min): BLOQ
17-AG plasma concentration ([1]; animal 1, 240 min): BLOQ
17-AG plasma concentration ([1]; animal 1, 1440 min): BLOQ
17-AG plasma concentration ([1]; animal 2, 5 min): 1.519 ng/mL
17-AG plasma concentration ([1]; animal 2, 15 min): BLOQ
17-AG plasma concentration ([1]; animal 2, 30 min): BLOQ
17-AG plasma concentration ([1]; animal 2, 60 min): BLOQ
17-AG plasma concentration ([1]; animal 2, 120 min): BLOQ
17-AG plasma concentration ([1]; animal 2, 240 min): BLOQ
17-AG plasma concentration ([1]; animal 2, 1440 min): BLOQ
17-AG plasma concentration ([1]; animal 3, 5 min): 1.113 ng/mL
17-AG plasma concentration ([1]; animal 3, 15 min): BLOQ
17-AG plasma concentration ([1]; animal 3, 30 min): BLOQ
17-AG plasma concentration ([1]; animal 3, 60 min): BLOQ
17-AG plasma concentration ([1]; animal 3, 120 min): BLOQ
17-AG plasma concentration ([1]; animal 3, 240 min): BLOQ
17-AG plasma concentration ([1]; animal 3, 1440 min): BLOQ

C[C@H]1O[C@@H](O[C@H]2[C@@H](O)C[C@H](O[C@H]3[C@@H](O)C[C@H](O[C@H]4CC[C@@]5(C)[C@H](CC[C@@H]6[C@@H]5C[C@@H](O)[C@]5(C)[C@@H](C7=CC(=O)OC7)CC[C@]65O)C4)O[C@@H]3C)O[C@@H]2C)C[C@H](O)[C@@H]1O [Digoxin]
efflux ratio at 90 min [2, 5]: 21
Papp A→B at 90 min [2, 6]: 0.547 ×10⁻⁶ cm/s
Papp B→A at 90 min [2, 7]: 11.5 ×10⁻⁶ cm/s
efflux ratio at 90 min [2, 8]: 21.2
Papp A→B at 90 min [2, 9]: 0.413 ×10⁻⁶ cm/s
Papp B→A at 90 min [2, 10]: 8.76 ×10⁻⁶ cm/s

Cc1ncc2n1-c1ccc(Cl)cc1C(c1ccccc1F)=NC2 [Midazolam, reference compound]
elimination rate constant (k) ([3]; 0.5 µM, human liver microsomes): 0.04
intrinsic clearance (CLint) ([3]; 0.5 µM, human liver microsomes): 3.23 mL/min/g
half-life at 0.5 µM ([3]; human, liver microsomes): 17 min

CC(C)NCC(O)COc1cccc2ccccc12 (stereo not shown) [Propranolol]
efflux ratio at 90 min [2, 5]: 0.87
Papp A→B at 90 min [2, 6]: 18.6 ×10⁻⁶ cm/s
Papp B→A at 90 min [2, 7]: 16.2 ×10⁻⁶ cm/s
efflux ratio at 90 min [2, 8]: 0.81
Papp A→B at 90 min [2, 9]: 20.9 ×10⁻⁶ cm/s
Papp B→A at 90 min [2, 10]: 17 ×10⁻⁶ cm/s

CC(=O)CC(c1ccccc1)c1c(O)c2ccccc2oc1=O (stereo not shown) [warfarin]
recovery at 4 h, 2 µg/mL [4]: 88.3 ± 2.9%

Reference: PMC8820820, “Feasibility and safety of targeting mitochondria for cancer therapy – preclinical characterization of gamitrinib, a first-in-class, mitochondriaL-targeted small molecule Hsp90 inhibitor” (Cancer Biology & Therapy, 2022)
